Measurements published in patent US4740476A, “Immunoassay for estriol-3-sulfate” (Nihon Medi-Physics Co., Ltd., priority 1984, dated 1988).
Counter-ions that a name gives are not always drawn.

Key:
[1] = tested on: anti-estriol-3-sulfate antibody immobilized on Sepharose 4B; assay: Cross-reaction of various steroids in the radioimmunoassay (50% inhibition of labeled estriol-3-sulfate binding); set-up: species or system guinea pig; details: mass ratio of non-labeled estriol-3-sulfate to each steroid required for 50% inhibition of labeled estriol-3-sulfate binding
Procedure: (§1) A plasma specimen (0.1 ml) diluted with tris-HCl buffer (0.1 mol/liter; pH, 8.3) (containing glutamine (0.1 mol/liter)) was added thereto, and the resulting solution was incubated at 4° C. for 16 hours. The mixture was centrifuged at 3500 rpm for 20 minutes. A 0.2 ml aliquot of each supernatant was taken into a counting vial and admixed with Bray's scintillator, and radioactivity was counted in an Aloka LSC-673 liquid scintillation spectrometer.
The cross-reactivity is determined by calculating the mass ratio of non-labeled estriol-3-sulfate to each steriod required to show 50% inhibition of the labeled estiol-3-sulfate binding to the antibody.

[2] = target: anti-estriol-3-sulfate antibody immobilized on Sepharose 4B; assay: Scatchard plot of [3H]-estriol-3-sulfate binding to immobilized antibody; set-up: species or system guinea pig; details: immobilized antibody 1:500, incubation at 4° C. for 16 hours
Procedure: as §1, with “spectrometer. […] FIG. 1 of the accompanying drawing showing the Scatchard plot graph of anti-estriol-3-sulfate antibody immobilized on Sepharose 4B).” for “spectrometer.”

SMILES | Cross-reaction (%) [1] | Cross-reaction (%) ([1]; listed as dehydroepiandrosterone sulfate) | association constant (Ka) [2]
C[C@]12CC[C@@H]3c4ccc(O[C@@H]5O[C@H](C(=O)O)[C@@H](O)[C@H](O)[C@H]5O)cc4CC[C@H]3[C@@H]1C[C@@H](O)[C@@H]2O [Estriol-3-glucuronide] | 0.050% | – | –
C[C@]12CC[C@@H]3c4ccc(O)cc4CC[C@H]3[C@@H]1CCC2=O [Estrone] | < 0.001% | – | –
C[C@]12CC[C@H]3[C@@H](CCC4=CC(=O)CC[C@@]43C)[C@@H]1CC[C@@H]2OS(=O)(=O)O [Testosterone sulfate] | 0.004% | – | –
C[C@]12CC[C@@H]3c4ccc(OS(=O)(=O)O)cc4CC[C@H]3[C@@H]1CC[C@@H]2O [Estradiol-3-sulfate] | 0.144% | – | –
CC(C)CCC[C@@H](C)[C@H]1CC[C@H]2[C@@H]3CC=C4C[C@@H](O)CC[C@]4(C)[C@H]3CC[C@]12C [Cholesterol] | < 0.001% | – | –
COc1ccc2c(c1)CC[C@@H]1[C@@H]2CC[C@]2(C)C(=O)CC[C@@H]12 [Estrone methyl ether] | < 0.001% | – | –
C[C@]12CC[C@H](OS(=O)(=O)O)CC1=CC[C@@H]1[C@@H]2CC[C@]2(C)C(=O)CC[C@@H]12 [Dehydroepiandrosterone sulfate] | 0.077% | 0.77% | –
C[C@]12CC[C@@H]3c4ccc(O)cc4CC[C@H]3[C@@H]1C[C@@H](O)[C@@H]2O[C@@H]1O[C@H](C(=O)O)[C@@H](O)[C@H](O)[C@H]1O [Estriol-17-glucuronide] | < 0.001% | – | –
C[C@]12CC[C@H](O)CC1=CC[C@@H]1[C@@H]2CC[C@]2(C)C(=O)CC[C@@H]12 [Dehydroepiandrosterone] | < 0.001% | – | –
C[C@]12CC[C@@H]3c4cc(O)c(O)cc4CC[C@H]3[C@@H]1CCC2=O [2-Hydroxyestrone] | < 0.001% | – | –
C[C@]12CC[C@@H]3c4ccc(O)c(O)c4CC[C@H]3[C@@H]1CCC2=O [4-Hydroxyestrone] | < 0.001% | – | –
C[C@]12CC[C@@H]3c4ccc(OS(=O)(=O)O)cc4CC[C@H]3[C@@H]1CCC2=O [Estrone sulfate] | 0.060% | – | –
C[C@]12CC[C@@H]3c4ccc(OS(=O)(=O)O)cc4CC[C@H]3[C@@H]1C[C@@H](O)[C@@H]2O [Estriol-3-sulfate] | 100% | – | 4.3e+09 L/mol
CC(C)CCC[C@@H](C)[C@H]1CC[C@H]2[C@@H]3CC=C4C[C@@H](OS(=O)(=O)O)CC[C@]4(C)[C@H]3CC[C@]12C [Cholesterol sulfate] | 0.081% | – | –
C[C@]12CC[C@@H]3c4ccc(O)cc4CC[C@H]3[C@@H]1CC[C@@H]2O [Estradiol] | < 0.001% | – | –
C[C@]12CCC(=O)C=C1CC[C@@H]1[C@@H]2CC[C@]2(C)C(=O)CC[C@@H]12 [4-Androsterone-3,17-dione] | < 0.001% | – | –
CC(=O)[C@H]1CC[C@H]2[C@@H]3CCC4=CC(=O)CC[C@]4(C)[C@H]3CC[C@]12C [Progesterone] | < 0.001% | – | –
C[C@]12CC[C@@H]3c4ccc(O)cc4CC[C@H]3[C@@H]1CC[C@@H]2O[C@@H]1O[C@H](C(=O)O)[C@@H](O)[C@H](O)[C@H]1O [Estradiol-17-glucuronide] | < 0.001% | – | –
C[C@]12CC[C@@H](O)C[C@@H]1CC[C@@H]1[C@@H]2CC[C@]2(C)C(=O)CC[C@@H]12 [Androsterone] | < 0.001% | – | –
C[C@]12CC[C@@H]3c4ccc(O)cc4CC[C@H]3[C@@H]1C[C@@H](O[C@@H]1O[C@H](C(=O)O)[C@@H](O)[C@H](O)[C@H]1O)[C@@H]2O [Estriol-16-glucuronide] | < 0.001% | – | –
C[C@]12CC[C@@H]3c4ccc(O[C@@H]5O[C@H](C(=O)O)[C@@H](O)[C@H](O)[C@H]5O)cc4CC[C@H]3[C@@H]1CCC2=O [Estrone glucuronide] | < 0.001% | – | –
C[C@]12CC[C@@H]3c4ccc(O)cc4CC[C@H]3[C@@H]1C[C@H](O)[C@@H]2O [16-Epiestriol] | < 0.001% | – | –
C[C@]12CC[C@@H]3c4ccc(O)cc4CC[C@H]3[C@@H]1C[C@@H](O)[C@@H]2O [Estriol] | 0.033% | – | –
C[C@]12C[C@H](O)[C@H]3[C@@H](CCC4=CC(=O)CC[C@@]43C)[C@@H]1CC[C@@H]2C(=O)CO [Corticosterone] | < 0.001% | – | –
C[C@]12CC[C@H]3[C@@H](CCC4=CC(=O)CC[C@@]43C)[C@@H]1CC[C@@H]2O [Testosterone] | < 0.001% | – | –
